Reference: patent US20040028616A1, “Inhibition of lung metastases by aerosol delivery of p53 gene and anti-cancer compounds” (priority 2002, published 2004)

Key:
B16-F10 lung metastases [1] = test: In vivo effect of aerosol PEI-p53 and 9NC-DLPC on established B16-F10 lung metastases; set-up: species or system C57BL/6 mice; conditions: lower dose, agent alone
Protocol: C57BL/6 mice (7-8 weeks old, Harlan Sprague Dawley, Houston, Tex.) were injected via the tail vein with 25,000 B16-F10 cells on day 0. […] Animals in the single agent therapy group were administered p53 one time weekly or 9-nitrocamptothecin twice weekly.
The dosage for treatment was 2 mg plasmid/10 ml of aerosolized solution at a PEI:DNA (N:P) ratio of 10:1 for DNA, and 5 mg 9-nitrocamptothecin at a concentration of 0.5 mg/ml at a 9 nitrocamptothecin:dilauroylphosphatidylcholine weight ratio of 1:50. Aerosol delivery of drugs and genes was performed using 5% CO2-in-air for increased pulmonary deposition. On day 25-post tumor inoculation, the mice were sacrificed, lungs were fixed and the tumor index was calculated.
Tumor index was calculated by the formula: Tumor index=lung weights×average grade for the group. […] The growth of tumor contiguous to the lung was considered as a part of the lung for weighing the lungs. Values are mean+SD (n=10 mice per group).

B16-F10 lung metastases [2] = test: Survival of B16-F10 challenged mice with PEI-p53/9NC-DLPC aerosol treatment; type: in vivo, C57BL/6 mice; conditions: aerosol treatment from day 11 for two weeks; n=10 mice per group
Protocol: C57BL/6 mice (n=10 mice per group) were injected via the tail vein with 25,000 B16-F10 cells on day 0 and the tumor was allowed to establish until day 10. The mice were then left untreated; or exposed to PEI-p53 aerosol complexes, to 9-nitrocamptothecin alone or to a sequential combination of p53 and 9-nitrocamptothecin, or 9-nitrocamptothecin and Neobam combination starting day 11 after tumor cell injection. Neobam was used as a negative control. The dosage was twice a week for drug or gene alone; and in combination once a week for gene and, twice a week for drug therapy. The mice were treated for two weeks, and then monitored over time for their survival.

B16-F10 cells = test: In vitro effect of p53 gene and 9NC on B16-F10 cell proliferation (hematocytometer cell count); type: cell-based; conditions: drug >0.5 mg/ml; data not shown
Protocol: B16-F10 cells grown in tissue culture plates (20,000 cells/well in a 48 well plate; […] cells/well in a 12 well plate) are transfected with PEI-DNA complexes (1 μg/ml; p53 or control empty plasmid, Neo) for 24 hours. […] The proliferation of B16-F10 cells 24 hours later was evaluated using the hematocytometer. To count the cells, the cell layer was washed with PBS and then trypsinized with 0.25% trypsin. The Alamar Blue Assay (Trek Diagnostic Systems, Inc) was also performed to test the viability of the cells (data not shown).
Control groups included cells treated with the genes (p53 and Neobam) alone, or with the drug (9-nitrocamptothecin) alone, or with Neobam and 9-nitrocamptothecin in combination. […] The p53 expression levels in parental and p53 treated B16-F10 cells have been reported previously (8).

CC[C@@]1(O)C(=O)OCc2c1cc1n(c2=O)Cc2cc3c([N+](=O)[O-])cccc3nc2-1 [9-nitrocamptothecin] was tested, and the “suppression of metastatic growth or increase of survival by single agent” value (B16-F10 lung metastases [1]) was “neither the p53 nor the 9-nitrocamptothecin alone is potent enough”, the mean survival time (B16-F10 lung metastases [2]) was 29 ± 3 days and the “inhibition of B16-F10 as single agent, increased drug concentration” value (B16-F10 cells) was “very potent inhibition”.
